Data published in PMC8829872 (Cancer chemotherapy and pharmacology, 2022).
Read-outs that look alike come from different tables or passages of the source.

Experiment: Extensive tissue distribution study in CT26 tumor-bearing mice
Assay type: in vivo, Balb/c mice
Conditions: for Kp: oral, 75 mg/kg
Method: Mice were injected subcutaneously on the right flank with 1x10^6 CT26 cells, a murine colorectal carcinoma cell line from BALB/c mice,obtained from ATCC (Manassas, VA). Cells were cultured in RPMI-1640 medium with L-glutamine (BioWhittaker Inc., Walkersville, MD), containing 10% heat-inactivated fetal bovine serum and 100 units of penicillin/mL and 100 μg/mL of streptomycin (Biofluids, BioSource, Rockville, MD) in an incubator with 95% air, 5% CO2, and 95% humidity at 37 °C. Cells were verified and checked for mycoplasm by IDEXX BioAnalytics (Westbrook, ME). Implantation and tumor growth were monitored twice weekly with a digital caliper. When tumors were approximately 200 mm^3, mice were stratified into time groups (N=3) primarily using body weight and secondarily using tumor size. Mice were administered 75 mg/kg PO through oral gavage. […] Bone marrow was obtained by flushing both femurs from each mouse with PBS, followed by centrifugation at 12,000 x g and removal of the supernatant. Protein analysis of the resuspended pellet was conducted using the Bio-Rad protein assay following the manufacturer’s instructions with bovine serum albumin as the standard. Blood was processed to obtain plasma and urine and feces were collected as described above.
For tissue and tumor analysis, samples were homogenized with 3 parts PBS (v/g) and further diluted with control plasma and concentrations determined from calibration curves prepared in control plasma.

[1] = Balb/c, mouse, 75 mg/kg PO-ext, plasma

Cl (75 mg/kg PO-ext): 37.3 mL/min/kg
Vd (75 mg/kg PO-ext): 5.66 L/kg
0-24h urine (75 mg/kg PO-ext, unaltered drug): 3.19 % dose
0-24h feces (75 mg/kg PO-ext, unchanged drug): 8.58 % dose
AUC0-∞ (75 mg/kg PO, Plasma): 2,371 (185) μg/mL•min
Cmax (75 mg/kg PO, Plasma): 14.1 (1.7) μg/mL
Tmax (75 mg/kg PO, Plasma): 15 min
AUC(0-t) (75 mg/kg PO, Plasma, 0-1440 min): 2,371 (185) μg/mL•min
Kp (Balb/c, mouse, bone marrow / plasma, 75 mg/kg PO, Bone Marrow to corresponding plasma AUC (0-360), read-out: Partition Coefficient): 4.6
Kp (Balb/c, mouse, brain, 75 mg/kg PO, Brain to corresponding plasma AUC (0-960), read-out: Partition Coefficient): ~0.05
Kp (Balb/c, mouse, draining lymph node / plasma, 75 mg/kg PO, Draining Lymph Node to plasma AUC, read-out: Partition Coefficient): 0.792
Kp (Balb/c, mouse, esophagus / plasma, 75 mg/kg PO, Esophagus to plasma AUC, read-out: Partition Coefficient): 3.27
Kp (Balb/c, mouse, fat, 75 mg/kg PO, Fat to plasma AUC, read-out: Partition Coefficient): 0.412
Kp (Balb/c, mouse, kidney / plasma, 75 mg/kg PO, Kidneys to plasma AUC, read-out: Partition Coefficient): 2.77
AUC(0-inf) (Balb/c, mouse, kidney, 75 mg/kg PO, Kidneys): 109000 ng·h/mL
AUC(0-t) (Balb/c, mouse, kidney, 75 mg/kg PO, Kidneys, 0-1440 min, read-out: AUC0-t (converted)): 109000 ng·h/mL
Cmax (Balb/c, mouse, kidney, 75 mg/kg PO, Kidneys, read-out: Cmax): 39200 ng/mL
Tmax (Balb/c, mouse, kidney, 75 mg/kg PO, Kidneys, read-out: Tmax (converted)): 15 min
Kp (Balb/c, mouse, liver / plasma, 75 mg/kg PO, Liver to plasma AUC, read-out: Partition Coefficient): 7.42
AUC(0-inf) (Balb/c, mouse, lung, 75 mg/kg PO, Lungs): 42100 ng·h/mL
AUC(0-t) (Balb/c, mouse, lung, 75 mg/kg PO, Lungs, 0-1440 min, read-out: AUC0-t (converted)): 42100 ng·h/mL
Cmax (Balb/c, mouse, lung, 75 mg/kg PO, Lungs, read-out: Cmax): 17400 ng/mL
Tmax (Balb/c, mouse, lung, 75 mg/kg PO, Lungs, read-out: Tmax (converted)): 15 min
Kp (Balb/c, mouse, non-draining lymph node / plasma, 75 mg/kg PO, Non-draining Lymph Node to plasma AUC, read-out: Partition Coefficient): 0.983
Kp (Balb/c, mouse, red blood cells (RBC) / plasma, 75 mg/kg PO, RBC to plasma AUC, read-out: Partition Coefficient): 0.701
AUC(0-inf) (Balb/c, mouse, red blood cells (RBC), 75 mg/kg PO, RBC): 27700 ng·h/mL
AUC(0-t) (Balb/c, mouse, red blood cells (RBC), 75 mg/kg PO, RBC, 0-1440 min, read-out: AUC0-t (converted)): 27700 ng·h/mL
Cmax (Balb/c, mouse, red blood cells (RBC), 75 mg/kg PO, RBC, read-out: Cmax): 13200 ng/mL
Tmax (Balb/c, mouse, red blood cells (RBC), 75 mg/kg PO, RBC, read-out: Tmax (converted)): 15 min
AUC(0-inf) (Balb/c, mouse, skeletal muscle, 75 mg/kg PO, Muscle): 41200 ng·h/mL
AUC(0-t) (Balb/c, mouse, skeletal muscle, 75 mg/kg PO, Muscle, 0-1440 min, read-out: AUC0-t (converted)): 41200 ng·h/mL
Cmax (Balb/c, mouse, skeletal muscle, 75 mg/kg PO, Muscle, read-out: Cmax): 12500 ng/mL
Tmax (Balb/c, mouse, skeletal muscle, 75 mg/kg PO, Muscle, read-out: Tmax (converted)): 15 min
Kp (Balb/c, mouse, small intestine / plasma, 75 mg/kg PO, Small Intestine to plasma AUC, read-out: Partition Coefficient): 8.39
Kp (Balb/c, mouse, spinal cord, 75 mg/kg PO, Spinal Cord to plasma AUC, read-out: Partition Coefficient): ~0.05
Kp (Balb/c, mouse, spleen / plasma, 75 mg/kg PO, Spleen to plasma AUC, read-out: Partition Coefficient): 0.891
Kp (Balb/c, mouse, thymus / plasma, 75 mg/kg PO, Thymus to plasma AUC, read-out: Partition Coefficient): 0.652
Kp (Balb/c, mouse, tumor / plasma, 75 mg/kg PO, Tumor to plasma AUC, read-out: Partition Coefficient): 0.75
Kp (Balb/c, mouse, tumor, 75 mg/kg PO, CT26 tumor, read-out: Tumor exposure relative to plasma): ~0.75
Cmax (Balb/c, mouse, 75 mg/kg PO-ext (tissue distribution study), plasma, read-out: Cmax): 14100 ng/mL
AUC(0-inf) [1]: 39500 ng·h/mL
half-life [1]: 105 min
AUC(0-t) (Balb/c, mouse, 75 mg/kg PO-ext, plasma, read-out: AUC0-360 (converted)): 39500 ng·h/mL
Tmax (Balb/c, mouse, 75 mg/kg PO-ext, plasma, read-out: Tmax (converted)): 15 min
AUC(0-inf) (Balb/c, mouse, 75 mg/kg PO, Bone Marrow): 133000 ng·h/mL
AUC(0-t) (Balb/c, mouse, 75 mg/kg PO, Bone Marrow, 0-360 min, read-out: AUC0-t (converted)): 133000 ng·h/mL
Cmax (Balb/c, mouse, 75 mg/kg PO, Bone Marrow, read-out: Cmax): 65800 ng/mL
Tmax (Balb/c, mouse, 75 mg/kg PO, Bone Marrow, read-out: Tmax (converted)): 30 min
AUC(0-inf) (Balb/c, mouse, 75 mg/kg PO, Brain): 2100 ng·h/mL
AUC(0-t) (Balb/c, mouse, 75 mg/kg PO, Brain, 0-960 min, read-out: AUC0-t (converted)): 2100 ng·h/mL
Cmax (Balb/c, mouse, 75 mg/kg PO, Brain, read-out: Cmax): 854 ng/mL
Tmax (Balb/c, mouse, 75 mg/kg PO, Brain, read-out: Tmax (converted)): 15 min
AUC(0-inf) (Balb/c, mouse, 75 mg/kg PO, CT26 Tumor): 29600 ng·h/mL
AUC(0-t) (Balb/c, mouse, 75 mg/kg PO, CT26 Tumor, 0-1440 min, read-out: AUC0-t (converted)): 29600 ng·h/mL
Cmax (Balb/c, mouse, 75 mg/kg PO, CT26 Tumor, read-out: Cmax): 10100 ng/mL
Tmax (Balb/c, mouse, 75 mg/kg PO, CT26 Tumor, read-out: Tmax (converted)): 30 min
AUC(0-inf) (Balb/c, mouse, 75 mg/kg PO, Draining Lymph Node): 31300 ng·h/mL
AUC(0-t) (Balb/c, mouse, 75 mg/kg PO, Draining Lymph Node, 0-1440 min, read-out: AUC0-t (converted)): 31200 ng·h/mL
Cmax (Balb/c, mouse, 75 mg/kg PO, Draining Lymph Node, read-out: Cmax): 12100 ng/mL
Tmax (Balb/c, mouse, 75 mg/kg PO, Draining Lymph Node, read-out: Tmax (converted)): 15 min
AUC(0-inf) (Balb/c, mouse, 75 mg/kg PO, Esophagus): 129000 ng·h/mL
AUC(0-t) (Balb/c, mouse, 75 mg/kg PO, Esophagus, 0-1440 min, read-out: AUC0-t (converted)): 129000 ng·h/mL
Cmax (Balb/c, mouse, 75 mg/kg PO, Esophagus, read-out: Cmax): 115000 ng/mL
Tmax (Balb/c, mouse, 75 mg/kg PO, Esophagus, read-out: Tmax (converted)): 5 min
AUC(0-inf) (Balb/c, mouse, 75 mg/kg PO, Fat): 16300 ng·h/mL
AUC(0-t) (Balb/c, mouse, 75 mg/kg PO, Fat, 0-1440 min, read-out: AUC0-t (converted)): 16300 ng·h/mL
Cmax (Balb/c, mouse, 75 mg/kg PO, Fat, read-out: Cmax): 9200 ng/mL
SMILES: C[C@@H]1COCCN1c1cc(C2([S@](C)(=N)=O)CC2)nc(-c2cc[nH]c3nccc2-3)n1 [AZD6738]
